Measurements: patent US8952024B2, “Herbicidal pyrimidone derivatives” (E I du Pont de Nemours and Company, priority 2009, dated 2015)

Tests used:
Experiment in all cases: Test B pre-/postemergence plant response
Assay type in all cases: in vivo
Details in all cases: Postemergence
[1] = tested on: downy bromegrass (Bromus tectorum)
From the text: (§1) Seeds of plant species selected from blackgrass (Alopecurus myosuroides), downy bromegrass (Bromus tectorum), green foxtail (Setaria viridis), Italian ryegrass (Lolium multiflorum), wheat (Triticum aestivum), wild oat (Avena fatua), deadnettle (henbit deadnettle, Lamium amplexicaule), galium (catchweed bedstraw, Galium aparine), bermudagrass (Cynodon dactylon), Surinam grass (Brachiaria decumbens), cocklebur (Xanthium strumarium), corn (Zea mays), large crabgrass (Digitaria sanguinalis), woolly cupgrass (Eriochloa villosa), giant foxtail (Setaria faberii), goosegrass (Eleusine indica), johnsongrass (Sorghum halepense), kochia (Kochia scoparia), lambsquarters (Chenopodium album), morningglory (Ipomoea coccinea), nightshade (eastern black nightshade, Solanum ptycanthum), yellow nutsedge (Cyperus esculentus), pigweed (Amaranthus retroflexus), ragweed (common ragweed, Ambrosia elatior), Russian thistle (Salsola kali), soybean (Glycine max), sunflower (common oilseed sunflower, Helianthus annuus) and velvetleaf (Abutilon theophrasti) were planted into a blend of loam soil and sand and treated preemergence with test compounds formulated in a non-phytotoxic solvent mixture which included a surfactant.
(§2) At the same time, plants selected from these crop and weed species and also winter barley (Hordeum vulgare), canarygrass (Phalaris minor), chickweed (Stellaria media) and windgrass (Apera spica-venti) were planted in pots containing Redi-Earth® planting medium (Scotts Company, 14111 Scottslawn Road, Marysville, Ohio 43041) comprising spaghnum peat moss, vermiculite, wetting agent and starter nutrients and treated with postemergence applications of some of the test chemicals formulated in the same manner. Plants ranged in height from 2 to 18 cm (1- to 4-leaf stage) for postemergence treatments.
(§3) Treated plants and controls were maintained in a greenhouse for 13 to 15 days, after which time all treated plants were visually evaluated and compared to controls. Plant response ratings, summarized in Table B, are based on a scale of 0 to 100 where 0 is no effect and 100 is complete control. A dash (-) response means no test result.

[2] = tested on: wheat (Triticum aestivum)
From the text: as §1, §2, §3

[3] = tested on: bermudagrass (Cynodon dactylon)
From the text: as §1, §2, §3

soybean (Glycine max) = tested on: soybean (Glycine max)
From the text: as §1, §2, §3

kochia (Kochia scoparia) = tested on: kochia (Kochia scoparia)
From the text: as §1, §2, §3

[4] = tested on: Italian ryegrass (Lolium multiflorum)
From the text: as §1, §2, §3

[5] = tested on: morningglory (Ipomoea coccinea)
From the text: as §1, §2, §3

[6] = tested on: velvetleaf (Abutilon theophrasti)
From the text: as §1, §2, §3

[7] = tested on: woolly cupgrass (Eriochloa villosa)
From the text: as §1, §2, §3

[8] = tested on: cocklebur (Xanthium strumarium)
From the text: as §1, §2, §3

[9] = tested on: yellow nutsedge (Cyperus esculentus)
From the text: as §1, §2, §3

[10] = tested on: large crabgrass (Digitaria sanguinalis)
From the text: as §1, §2, §3

SMILES: COc1ccc(-n2c(-c3ccccc3)ncc(C(=O)C3=C(O)CCCC3=O)c2=O)cc1 [Compound 4, 5-[(2-hydroxy-6-oxo-cyclohexen-1-yl)carbonyl]-3-(4-methoxyphenyl)-2-phenyl-4(3H)-pyrimidinone]
- pest or weed control at 31 g/ha ([1]; Bromus tectorum, post-emergence, 31 g ai/ha, scale 0 to 100 (0 no effect, 100 complete control), read-out: Plant response rating, Bromegrass, Downy): 10%
- pest or weed control at 62 g/ha ([1]; Bromus tectorum, post-emergence, 62 g ai/ha, scale 0 (no effect) to 100 (complete control), 13 to 15 days, read-out: Plant response rating, Bromegrass, Downy): 15%
- pest or weed control at 125 g/ha ([1]; Bromus tectorum, post-emergence, 125 g ai/ha, visual rating after 13 to 15 days, scale 0 (no effect) to 100 (complete control)): 50%
- Bromegrass, Downy plant response rating ([1]; 250 g ai/ha, scale 0 to 100): 55
- Wheat plant response rating ([2]; 250 g ai/ha, scale 0 to 100): 70
- plant injury at 31 g/ha ([2]; Triticum aestivum, post-emergence, 31 g ai/ha, scale 0 to 100 (0 no effect, 100 complete control), read-out: Plant response rating, Wheat): 5%
- plant injury at 62 g/ha ([2]; Triticum aestivum, post-emergence, 62 g ai/ha, scale 0 (no effect) to 100 (complete control), 13 to 15 days, read-out: Plant response rating, Wheat): 5%
- plant injury at 125 g/ha ([2]; Triticum aestivum, post-emergence, 125 g ai/ha, visual rating after 13 to 15 days, scale 0 (no effect) to 100 (complete control)): 50%
- pest or weed control at 31 g/ha ([3]; Cynodon dactylon, post-emergence, 31 g ai/ha, scale 0 to 100 (0 no effect, 100 complete control), read-out: Plant response rating, Bermudagrass): 15%
- pest or weed control at 62 g/ha ([3]; Cynodon dactylon, post-emergence, 62 g ai/ha, scale 0 (no effect) to 100 (complete control), 13 to 15 days, read-out: Plant response rating, Bermudagrass): 85%
- pest or weed control at 125 g/ha ([3]; Cynodon dactylon, post-emergence, 125 g ai/ha, scale 0 to 100 (0 no effect, 100 complete control), 13 to 15 days, read-out: Plant response rating, Bermudagrass): 85%
- Bermudagrass plant response rating ([3]; 250 g ai/ha, scale 0 to 100): 100
- plant injury at 31 g/ha (soybean (Glycine max); Glycine max, post-emergence, 31 g ai/ha, scale 0 to 100 (0 no effect, 100 complete control), read-out: Plant response rating, Soybean): 95%
- plant injury at 62 g/ha (soybean (Glycine max); Glycine max, post-emergence, 62 g ai/ha, scale 0 (no effect) to 100 (complete control), 13 to 15 days, read-out: Plant response rating, Soybean): 100%
- plant injury at 125 g/ha (soybean (Glycine max); Glycine max, post-emergence, 125 g ai/ha, visual rating after 13 to 15 days, scale 0 (no effect) to 100 (complete control)): 100%
- Soybean plant response rating (soybean (Glycine max); 250 g ai/ha, scale 0 to 100): 100
- pest or weed control at 31 g/ha (kochia (Kochia scoparia); Bassia scoparia, post-emergence, 31 g ai/ha, scale 0 to 100 (0 no effect, 100 complete control), read-out: Plant response rating, Kochia): 80%
- pest or weed control at 62 g/ha (kochia (Kochia scoparia); Bassia scoparia, post-emergence, 62 g ai/ha, scale 0 (no effect) to 100 (complete control), 13 to 15 days, read-out: Plant response rating, Kochia): 100%
- pest or weed control at 125 g/ha (kochia (Kochia scoparia); Bassia scoparia, post-emergence, 125 g ai/ha, visual rating after 13 to 15 days, scale 0 (no effect) to 100 (complete control)): 100%
- Kochia plant response rating (kochia (Kochia scoparia); 250 g ai/ha, scale 0 to 100): 100
- pest or weed control at 31 g/ha ([4]; Lolium multiflorum, post-emergence, 31 g ai/ha, scale 0 to 100 (0 no effect, 100 complete control), read-out: Plant response rating, Ryegrass, Italian): 10%
- pest or weed control at 62 g/ha ([4]; Lolium multiflorum, post-emergence, 62 g ai/ha, scale 0 (no effect) to 100 (complete control), 13 to 15 days, read-out: Plant response rating, Ryegrass, Italian): 10%
- pest or weed control at 125 g/ha ([4]; Lolium multiflorum, post-emergence, 125 g ai/ha, visual rating after 13 to 15 days, scale 0 (no effect) to 100 (complete control)): 15%
- Ryegrass, Italian plant response rating ([4]; 250 g ai/ha, scale 0 to 100): 20
- pest or weed control at 31 g/ha ([5]; Ipomoea, post-emergence, 31 g ai/ha, scale 0 to 100 (0 no effect, 100 complete control), read-out: Plant response rating, Morningglory): 60%
- pest or weed control at 62 g/ha ([5]; Ipomoea, post-emergence, 62 g ai/ha, scale 0 (no effect) to 100 (complete control), 13 to 15 days, read-out: Plant response rating, Morningglory): 85%
- pest or weed control at 125 g/ha ([5]; Ipomoea, post-emergence, 125 g ai/ha, visual rating after 13 to 15 days, scale 0 (no effect) to 100 (complete control)): 90%
- Morningglory plant response rating ([5]; 250 g ai/ha, scale 0 to 100): 95
- pest or weed control at 31 g/ha ([6]; Abutilon theophrasti, post-emergence, 360 h, 31 g ai/ha, scale 0 to 100 (0 no effect, 100 complete control), read-out: Plant response rating, Velvetleaf): 70%
- pest or weed control at 62 g/ha ([6]; Abutilon theophrasti, post-emergence, 360 h, 62 g ai/ha, scale 0 (no effect) to 100 (complete control), 13 to 15 days, read-out: Plant response rating, Velvetleaf): 75%
- pest or weed control at 125 g/ha ([6]; Abutilon theophrasti, post-emergence, 360 h, 125 g ai/ha, visual rating after 13 to 15 days, scale 0 (no effect) to 100 (complete control)): 90%
- Velvetleaf plant response rating ([6]; 250 g ai/ha, scale 0 to 100): 100
- pest or weed control at 31 g/ha ([7]; Eriochloa villosa, post-emergence, 31 g ai/ha, scale 0 to 100 (0 no effect, 100 complete control), read-out: Plant response rating, Cupgrass, Woolly): 75%
- pest or weed control at 62 g/ha ([7]; Eriochloa villosa, post-emergence, 62 g ai/ha, scale 0 (no effect) to 100 (complete control), 13 to 15 days, read-out: Plant response rating, Cupgrass, Woolly): 95%
- pest or weed control at 125 g/ha ([7]; Eriochloa villosa, post-emergence, 125 g ai/ha, visual rating after 13 to 15 days, scale 0 (no effect) to 100 (complete control)): 100%
- Cupgrass, Woolly plant response rating ([7]; 250 g ai/ha, scale 0 to 100): 100
- Cocklebur plant response rating ([8]; 250 g ai/ha, scale 0 to 100): 100
- pest or weed control at 31 g/ha ([8]; Xanthium strumarium, post-emergence, 31 g ai/ha, scale 0 to 100 (0 no effect, 100 complete control), read-out: Plant response rating, Cocklebur): 100%
- pest or weed control at 62 g/ha ([8]; Xanthium strumarium, post-emergence, 62 g ai/ha, scale 0 (no effect) to 100 (complete control), 13 to 15 days, read-out: Plant response rating, Cocklebur): 100%
- pest or weed control at 125 g/ha ([8]; Xanthium strumarium, post-emergence, 125 g ai/ha, visual rating after 13 to 15 days, scale 0 (no effect) to 100 (complete control)): 100%
- pest or weed control at 31 g/ha ([9]; Cyperus, post-emergence, 31 g ai/ha, scale 0 to 100 (0 no effect, 100 complete control), read-out: Plant response rating, Nutsedge, Yellow): 55%
- pest or weed control at 62 g/ha ([9]; Cyperus, post-emergence, 62 g ai/ha, scale 0 (no effect) to 100 (complete control), 13 to 15 days, read-out: Plant response rating, Nutsedge, Yellow): 65%
- pest or weed control at 125 g/ha ([9]; Cyperus, post-emergence, 125 g ai/ha, visual rating after 13 to 15 days, scale 0 (no effect) to 100 (complete control)): 75%
- Nutsedge, Yellow plant response rating ([9]; 250 g ai/ha, scale 0 to 100): 80
- pest or weed control at 31 g/ha ([10]; Digitaria sanguinalis, post-emergence, 31 g ai/ha, scale 0 to 100 (0 no effect, 100 complete control), read-out: Plant response rating, Crabgrass, Large): 70%
- pest or weed control at 62 g/ha ([10]; Digitaria sanguinalis, post-emergence, 62 g ai/ha, scale 0 (no effect) to 100 (complete control), 13 to 15 days, read-out: Plant response rating, Crabgrass, Large): 85%
- pest or weed control at 125 g/ha ([10]; Digitaria sanguinalis, post-emergence, 125 g ai/ha, visual rating after 13 to 15 days, scale 0 (no effect) to 100 (complete control)): 100%
- Crabgrass, Large plant response rating ([10]; 250 g ai/ha, scale 0 to 100): 100
